Data: US20220306695A1, “COMPSTATIN ANALOGUES AND THEIR MEDICAL USES” (priority 2019, published 2022)
Where two headings read alike, the source gives them in different places. Starred links: 1 amine or outer side, 2 acyl side, 3 side chain; linkers in the order of their positions; H or OH if unused. Positions of bridges follow the written chain, without caps; N, C: chain ends. Non-standard residues stand in square brackets, D forms with d. Residues, ends and D or L forms follow the SMILES beside them. Groups on a side chain read outwards from the residue. *: point of attachment. Trp(1-Me) = Cn1cc(C[C@H](N)C(=O)O)c2ccccc21; Abu(4-yl) = O=C([C@H](CC[*:3])N[*:1])[*:2]; C18 diacid = O=C(O)CCCCCCCCCCCCCCCCC(=O)*; γGlu = O=C(O)[C@H](CCC(=O)[*:2])N[*:1]; NMeI = CC[C@H](C)[C@H](NC)C(=O)O; AEEA = NCCOCCOCC(=O)O; Sar = CNCC(=O)O

Key:
[1] = test system: classical complement pathway; assay: In vitro haemolysis assay (inhibition of classical complement pathway); type: cell-based, human
How it was run: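 Serially diluted compound (9 points) was preincubated 15 min at room temperature with diluted human serum, titrated per batch to give 70-90% maximal haemolysis, in Tris/casein buffer pH 7.4 with Mg2+/Ca2+. Antibody-sensitized sheep erythrocytes were then added for 30 min at 37° C, and the reaction was stopped with EDTA. Haemolysis was read at A405, with IC50 from 4PL fit.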

Human C3 = biological target: T1, Human C3 (Homo sapiens, UniProt P01024); assay: Affinity measurement by surface plasmon resonance (SPR) with immobilized C3; type: binding; conditions: Table 7; immobilized C3, 25° C., pH 7.4
T1 construct: purchased Complement tech A1 13c (so in the source)
Description: Surface plasmon resonance (SPR) was used to characterize peptides with respect to their binding affinity (Kd) for C3. Human C3 (Complement tech cat #A1 13c) was immobilised on individual flow cells of CM5 sensor chips (GE Healthcare) using standard amine coupling to a density of approximately 3000 resonance units (RU) in a buffer consisting of 10 mM phosphate pH 7.4, 150 mM NaCl, 0.05% Tween20. For interaction experiments a multi-cycle experiment approach was used and performed using either a Biacore™ T200 or Biacore™ X100 instrument (GE Healthcare) at 25° C. Peptides were injected in increasing concentration series (5-8 different concentrations) for 60-120 s at a flow rate of 30 μL/min in a buffer consisting of 10 mM Tris buffer at pH 7.4, with 150 mM NaCl and 0.05% Tween20. This was followed by a dissociation period for up to 10 min. […] Sensorgrams were double-referenced (reference surface, blanks) prior to analysis of the kinetic profiles by globally fitting data to a 1:1 Langmuir binding model to obtain association and dissociation rates for calculation of the equilibrium dissociation constant Kd. Each peptide was tested at in at least 2 independent experiments.

[2] = Table 3, human serum, sensitized sheep red blood cells, read-out: IC50[nM], in vitro analysis of inhibition of hemolysis

Kd (Human C3) | SMILES | IC50 [1, 2] | IC50 ([1]; Table 4, valine 3 versus isoleucine 3 pairs, read-out: CP hemolysis IC50)
1.5 nM | CC[C@H](C)[C@@H]1NC(=O)[C@@H](NC(=O)[C@H](Cc2ccccc2)NC(=O)[C@H](CCC(=O)O)NC(=O)[C@H](CO)NC(C)=O)CSSC[C@@H](C(=O)N(C)CC(=O)N[C@@H](CCC(=O)O)C(=O)NCCOCCOCC(=O)NCCOCCOCC(=O)N[C@@H](CCCCNC(=O)CC[C@H](NC(=O)CNC(=O)CC[C@H](NC(=O)CCCCCCCCCCCCCCCCC(=O)O)C(=O)O)C(=O)O)C(N)=O)NC(=O)[C@H](CCCNC(=N)N)NC(=O)[C@H](Cc2c[nH]cn2)NC(=O)[C@H](CCC(=O)O)NC(=O)CN(C)C(=O)[C@H](Cc2c[nH]c3ccccc23)NC(=O)[C@H](CC(=O)O)NC(=O)[C@H](CCC(N)=O)NC(=O)[C@H](Cc2cn(C)c3ccccc23)NC1=O [Compound 144, Ac-SEFC(1)I[1-Me-Trp]QDW[Sar]EHRC(1)[Sar]E[Peg3][Peg3]-K([17-carboxy-heptadecanoyl][γGlu]G[γGlu])-NH2] (Ac-SEFCI[Trp(1-Me)]QDW[Sar]EHRC[Sar]E[AEEA][AEEA]K([γGlu-Gly-γGlu-C18 diacid])-NH2; disulfide 4-14) | < 100 nM | 
1.4 nM | CC[C@H](C)[C@@H]1NC(=O)[C@@H](NC(=O)[C@H](Cc2ccccc2)NC(=O)[C@H](CCC(=O)O)NC(=O)[C@H](CO)NC(C)=O)CSCC[C@@H](C(=O)N[C@H](C(=O)NCC(=O)N[C@@H](C)C(=O)N[C@@H](CCC(=O)O)C(=O)N[C@@H](CO)C(N)=O)[C@@H](C)O)NC(=O)[C@H](CCCNC(=N)N)NC(=O)[C@H](Cc2c[nH]cn2)NC(=O)[C@H](CCC(=O)O)NC(=O)CNC(=O)[C@H](Cc2c[nH]c3ccccc23)NC(=O)[C@H](CC(=O)O)NC(=O)[C@H](CCC(N)=O)NC(=O)[C@H](Cc2cn(C)c3ccccc23)NC1=O [Compound 151, Ac-SEFA(1)I[1-Me-Trp]QDWGEHRhC(1)TGAES-NH2] (Ac-SEFCI[Trp(1-Me)]QDWGEHR[Abu(4-yl)]TGAES-NH2; thioether 4-14) | < 100 nM | 
16 nM | CC[C@H](C)[C@@H]1NC(=O)[C@@H](NC(=O)[C@H](Cc2ccccc2)NC(=O)[C@H](CCC(=O)O)NC(=O)[C@H](CO)NC(C)=O)CCSC[C@@H](C(=O)N(C)CC(=O)N[C@@H](CCC(=O)O)C(=O)NCC(=O)N[C@@H](CCC(=O)O)C(=O)NCCOCCOCC(=O)NCCOCCOCC(=O)N[C@@H](CCCCNC(=O)CC[C@H](NC(=O)CNC(=O)CC[C@H](NC(=O)CCCCCCCCCCCCCCCCC(=O)O)C(=O)O)C(=O)O)C(N)=O)NC(=O)[C@H](CCCNC(=N)N)NC(=O)[C@H](Cc2c[nH]cn2)NC(=O)[C@H](CCC(=O)O)NC(=O)CNC(=O)[C@H](Cc2c[nH]c3ccccc23)NC(=O)[C@H](CC(=O)O)NC(=O)[C@H](CCC(N)=O)NC(=O)[C@H](Cc2cn(C)c3ccccc23)NC1=O [Compound 152] (Ac-SEF[Abu(4-yl)]I[Trp(1-Me)]QDWGEHRC[Sar]EGE[AEEA][AEEA]K([γGlu-Gly-γGlu-C18 diacid])-NH2; thioether 4-14) | < 100 nM | 
16 nM | CC[C@H](C)[C@H](NC(C)=O)C(=O)N[C@H]1CSSC[C@@H](C(=O)N[C@@H](CO)C(N)=O)NC(=O)[C@H](CCCNC(=N)N)NC(=O)[C@H](Cc2c[nH]cn2)NC(=O)[C@H](CCC(=O)O)NC(=O)CNC(=O)[C@H](Cc2c[nH]c3ccccc23)NC(=O)[C@H](CC(=O)O)NC(=O)[C@H](CCC(N)=O)NC(=O)[C@H](Cc2c[nH]c3ccccc23)NC(=O)[C@H]([C@@H](C)CC)NC1=O [Compound 21] (Ac-ICIWQDWGEHRCS-NH2; disulfide 2-12) | < 100 nM | 77 nM
6.5 nM | CC[C@H](C)[C@@H]1NC(=O)[C@@H](NC(=O)[C@H](Cc2ccccc2)NC(=O)[C@H](CCC(=O)O)NC(=O)[C@H](CO)NC(C)=O)CCSC[C@@H](C(=O)N(C)CC(=O)N[C@@H](CCC(=O)O)C(=O)NCC(=O)N[C@@H](CCC(=O)O)C(=O)NCCOCCOCC(=O)N[C@@H](CCC(=O)O)C(=O)N[C@@H](CO)C(=O)N[C@@H](CCCCNC(=O)CC[C@H](NC(=O)CNC(=O)CC[C@H](NC(=O)CCCCCCCCCCCCCCCCC(=O)O)C(=O)O)C(=O)O)C(N)=O)NC(=O)[C@H](CCCNC(=N)N)NC(=O)[C@H](Cc2c[nH]cn2)NC(=O)[C@H](CCC(=O)O)NC(=O)CN(C)C(=O)[C@H](Cc2c[nH]c3ccccc23)NC(=O)[C@H](CC(=O)O)NC(=O)[C@H](CCC(N)=O)NC(=O)[C@H](Cc2cn(C)c3ccccc23)NC1=O [Compound 166, Ac-SEFhC(1)I[1-Me-Trp]QDW[Sar]EHRA(1)[Sar]EGE[Peg3]ES-K([17-carboxy-heptadecanoyl][γGlu]G[γGlu])-NH2] (Ac-SEF[Abu(4-yl)]I[Trp(1-Me)]QDW[Sar]EHRC[Sar]EGE[AEEA]ESK([γGlu-Gly-γGlu-C18 diacid])-NH2; thioether 4-14) | < 100 nM | 
0.12 nM | CC[C@H](C)[C@H](NC(=O)[C@H](N)Cc1ccc(O)cc1)C(=O)N[C@H]1CSSC[C@@H](C(=O)N(C)[C@H](C(N)=O)[C@@H](C)CC)NC(=O)[C@H](CCCNC(=N)N)NC(=O)[C@H](Cc2c[nH]cn2)NC(=O)[C@H](C)NC(=O)CN(C)C(=O)[C@H](Cc2c[nH]c3ccccc23)NC(=O)[C@H](CC(=O)O)NC(=O)[C@H](CCC(N)=O)NC(=O)[C@H](Cc2cn(C)c3ccccc23)NC(=O)[C@H]([C@@H](C)CC)NC1=O [Compound 48, H-{d}Y1C(1)I[1-Me-Trp]QDW[Sar]AHRC(1)[N-Me-Ile]-NH2] (H-[dY]ICI[Trp(1-Me)]QDW[Sar]AHRC[NMeI]-NH2; disulfide 3-13) | < 100 nM | 
3.4 nM | CC[C@H](C)[C@@H]1NC(=O)[C@@H](NC(=O)[C@H](Cc2ccccc2)NC(=O)[C@H](CCC(=O)O)NC(C)=O)CSCC[C@@H](C(=O)N[C@@H](CCC(=O)O)C(=O)NCC(=O)N[C@@H](CCC(=O)O)C(=O)N[C@@H](CCCCNC(=O)CC[C@H](NC(=O)CNC(=O)CC[C@H](NC(=O)CCCCCCCCCCCCCCCCC(=O)O)C(=O)O)C(=O)O)C(N)=O)NC(=O)[C@H](CCCNC(=N)N)NC(=O)[C@H](Cc2c[nH]cn2)NC(=O)[C@H](CCC(=O)O)NC(=O)CNC(=O)[C@H](Cc2c[nH]c3ccccc23)NC(=O)[C@H](CC(=O)O)NC(=O)[C@H](CCC(N)=O)NC(=O)[C@H](Cc2cn(C)c3ccccc23)NC1=O [Compound 161, Ac-EFA(1)I[1-Me-Trp]QDWGEHRhC(1)EGE-K([17-carboxy-heptadecanoyl][γGlu]G[γGlu])-NH2] (Ac-EFCI[Trp(1-Me)]QDWGEHR[Abu(4-yl)]EGEK([γGlu-Gly-γGlu-C18 diacid])-NH2; thioether 3-13) | < 100 nM | 
1.5 nM | CC[C@H](C)[C@@H]1NC(=O)[C@@H](NC(=O)[C@H](Cc2ccccc2)NC(=O)[C@H](CCC(=O)O)NC(=O)[C@H](CO)NC(C)=O)CSSC[C@@H](C(=O)N(C)CC(=O)N[C@@H](CCC(=O)O)C(=O)N[C@@H](C)C(N)=O)NC(=O)[C@H](CCCNC(=N)N)NC(=O)[C@H](Cc2c[nH]cn2)NC(=O)[C@H](CCC(=O)O)NC(=O)CNC(=O)[C@H](Cc2c[nH]c3ccccc23)NC(=O)[C@H](CC(=O)O)NC(=O)[C@H](CCC(N)=O)NC(=O)[C@H](Cc2cn(C)c3ccccc23)NC1=O [Compound 75] (Ac-SEFCI[Trp(1-Me)]QDWGEHRC[Sar]EA-NH2; disulfide 4-14) | < 100 nM | 
28 nM | CC[C@H](C)[C@@H]1NC(=O)[C@@H](NC(=O)[C@H](Cc2ccccc2)NC(=O)[C@H](CCC(=O)O)NC(=O)[C@H](CO)NC(C)=O)CSSC[C@@H](C(=O)N(C)CC(=O)N[C@@H](CCC(=O)O)C(=O)NCC(=O)N[C@@H](C)C(=O)N[C@@H](CCCCNC(=O)COCCOCCNC(=O)CC[C@H](NC(=O)COCCOCCNC(=O)CNC(=O)CC[C@H](NC(=O)CCCCCCCCCCCCCCCCC(=O)O)C(=O)O)C(=O)O)C(N)=O)NC(=O)[C@H](CCCNC(=N)N)NC(=O)[C@H](Cc2c[nH]cn2)NC(=O)[C@H](CCC(=O)O)NC(=O)CNC(=O)[C@H](Cc2c[nH]c3ccccc23)NC(=O)[C@H](CCC(=O)O)NC(=O)[C@H](CCC(N)=O)NC(=O)[C@H](Cc2cn(C)c3ccccc23)NC1=O [Compound 120] (Ac-SEFCI[Trp(1-Me)]QEWGEHRC[Sar]EGAK([AEEA-γGlu-AEEA-Gly-γGlu-C18 diacid])-NH2; disulfide 4-14) | < 250 nM | 
30 nM | CC[C@H](C)[C@@H]1NC(=O)[C@@H](NC(=O)[C@H](Cc2ccc(O)cc2)NC(=O)[C@H](CCC(=O)O)NC(=O)[C@H](CO)NC(C)=O)CSSC[C@@H](C(=O)N(C)CC(=O)N[C@@H](CCC(=O)O)C(=O)N[C@@H](CCCCN)C(=O)N[C@@H](CCC(=O)N[C@@H](C)C(=O)N[C@@H](CCCCNC(=O)COCCOCCNC(=O)CC[C@H](NC(=O)COCCOCCNC(=O)CNC(=O)CC[C@H](NC(=O)CCCCCCCCCCCCCCCCC(=O)O)C(=O)O)C(=O)O)C(N)=O)C(=O)O)NC(=O)[C@H](CCCNC(=N)N)NC(=O)[C@H](Cc2c[nH]cn2)NC(=O)[C@H](CCC(=O)O)NC(=O)CN(C)C(=O)[C@H](Cc2c[nH]c3ccccc23)NC(=O)[C@H](CCC(=O)O)NC(=O)[C@H](CCC(N)=O)NC(=O)[C@H](Cc2cn(C)c3ccccc23)NC1=O [Compound 121, Ac-SEYC(1)I[1-Me-Trp]QEW[Sar]EHRC(1)[Sar]K[γGlu]A-K([17-carboxy-heptadecanoyl][γGlu]G[Peg3][γGlu][Peg3])-NH2] (Ac-SEYCI[Trp(1-Me)]QEW[Sar]EHRC[Sar]EK[γGlu]AK([AEEA-γGlu-AEEA-Gly-γGlu-C18 diacid])-NH2; disulfide 4-14) | < 250 nM | 
